Results published in ChEMBL document CHEMBL1151757, “Synthesis, radiosynthesis, and biological evaluation of fluorine-18-labeled 2beta-carbo(fluoroalkoxy)-3beta-(3'-((Z)-2-haloethenyl)phenyl)nortropanes: candidate radioligands for in vivo imaging of the serotonin transporter with positron emission tomography” (J Med Chem, 2008).

What was measured:
[1] = Drug uptake in awake rhesus monkey brain medulla after 7.5 mins postinjection; assay type: ADME, organism-based, Macaca mulatta; details: in vivo, 0.125 h
[2] = Drug uptake in awake rhesus monkey brain medulla after 115 mins postinjection; assay type: ADME, organism-based, Macaca mulatta; details: in vivo
[3] = Drug uptake in anesthetized cynomolgus monkey brain frontal lobe after 187.5 mins postinjection; assay type: ADME, organism-based, Macaca fascicularis; details: in vivo, 3.125 h
[4] = Ratio of drug uptake in pons to cerebellum in awake rhesus monkey after 10.5 mins postinjection; assay type: ADME, organism-based, Macaca mulatta; details: in vivo, 0.175 h
[5] = Drug uptake in anesthetized cynomolgus monkey brain cerebellum after 182.5 mins postinjection; assay type: ADME, organism-based, Macaca fascicularis; details: in vivo
[6] = test system: Caudate; assay: Drug uptake in anesthetized cynomolgus monkey brain caudate after 197.5 mins postinjection; assay type: ADME, organism-based, Macaca fascicularis, Caudate nucleus; details: in vivo
[7] = Drug uptake in awake rhesus monkey brain medulla after 95 mins postinjection; assay type: ADME, organism-based, Macaca mulatta; details: in vivo
[8] = Drug uptake in awake rhesus monkey brain pons after 7.5 mins postinjection; assay type: ADME, organism-based, Macaca mulatta; details: in vivo, 0.125 h
[9] = Drug uptake in anesthetized cynomolgus monkey brain frontal lobe after 197.5 mins postinjection; assay type: ADME, organism-based, Macaca fascicularis; details: in vivo
[10] = Ratio of drug uptake in putamen to cerebellum in awake rhesus monkey after 45 mins postinjection; assay type: ADME, organism-based, Macaca mulatta; details: in vivo, 0.75 h
[11] = Drug uptake in awake rhesus monkey brain medulla after 10.5 mins postinjection; assay type: ADME, organism-based, Macaca mulatta; details: in vivo, 0.175 h
[12] = test system: Caudate; assay: Drug uptake in anesthetized cynomolgus monkey brain caudate after 182.5 mins postinjection; assay type: ADME, organism-based, Macaca fascicularis, Caudate nucleus; details: in vivo
[13] = test system: Caudate; assay: Drug uptake in anesthetized cynomolgus monkey brain caudate after 192.5 mins postinjection; assay type: ADME, organism-based, Macaca fascicularis, Caudate nucleus; details: in vivo
[14] = Drug uptake in awake rhesus monkey brain caudate after 13.5 mins postinjection; assay type: ADME, organism-based, Macaca mulatta, Caudate nucleus; details: in vivo, 0.225 h
[15] = Drug uptake in awake rhesus monkey brain caudate after 10.5 mins postinjection; assay type: ADME, organism-based, Macaca mulatta, Caudate nucleus; details: in vivo, 0.175 h
[16] = Drug uptake in awake rhesus monkey brain pons after 75 mins postinjection; assay type: ADME, organism-based, Macaca mulatta; details: in vivo, 1.25 h
[17] = Drug uptake in awake rhesus monkey brain frontal lobe after 75 mins postinjection; assay type: ADME, organism-based, Macaca mulatta; details: in vivo, 1.25 h
[18] = test system: Caudate; assay: Drug uptake in anesthetized cynomolgus monkey brain caudate after 202.5 mins postinjection; assay type: ADME, organism-based, Macaca fascicularis, Caudate nucleus; details: in vivo, 3.375 h
[19] = Drug uptake in awake rhesus monkey brain frontal lobe after 105 mins postinjection; assay type: ADME, organism-based, Macaca mulatta; details: in vivo, 1.75 h
[20] = Drug uptake in anesthetized cynomolgus monkey brain cerebellum after 207.5 mins postinjection; assay type: ADME, organism-based, Macaca fascicularis; details: in vivo
[21] = Ratio of drug uptake in thalamus to cerebellum in awake rhesus monkey after 17.5 mins postinjection; assay type: ADME, organism-based, Macaca mulatta; details: in vivo
[22] = Drug uptake in awake rhesus monkey brain cerebellum after 10.5 mins postinjection; assay type: ADME, organism-based, Macaca mulatta; details: in vivo, 0.175 h
[23] = Drug uptake in anesthetized cynomolgus monkey brain cerebellum after 192.5 mins postinjection; assay type: ADME, organism-based, Macaca fascicularis; details: in vivo
[24] = test system: Thalamus; assay: Drug uptake in anesthetized cynomolgus monkey brain thalamus after 202.5 mins postinjection; assay type: ADME, organism-based, Macaca fascicularis; details: in vivo, 3.375 h
[25] = test system: Midbrain; assay: Drug uptake in anesthetized cynomolgus monkey brain midbrain after 197.5 mins postinjection; assay type: ADME, organism-based, Macaca fascicularis; details: in vivo
[26] = test system: Caudate; assay: Drug uptake in anesthetized cynomolgus monkey brain caudate after 207.5 mins postinjection; assay type: ADME, organism-based, Macaca fascicularis, Caudate nucleus; details: in vivo
[27] = test system: Midbrain; assay: Drug uptake in anesthetized cynomolgus monkey brain midbrain after 202.5 mins postinjection; assay type: ADME, organism-based, Macaca fascicularis; details: in vivo, 3.375 h
[28] = test system: Pons; assay: Drug uptake in anesthetized cynomolgus monkey brain pons after 192.5 mins postinjection; assay type: ADME, organism-based, Macaca fascicularis; details: in vivo
[29] = Drug uptake in awake rhesus monkey brain midbrain after 25 mins postinjection; assay type: ADME, organism-based, Macaca mulatta; details: in vivo
[30] = test system: Pons; assay: Drug uptake in anesthetized cynomolgus monkey brain pons after 182.5 mins postinjection; assay type: ADME, organism-based, Macaca fascicularis; details: in vivo
[31] = test system: Putamen; assay: Drug uptake in anesthetized cynomolgus monkey brain putamen after 197.5 mins postinjection; assay type: ADME, organism-based, Macaca fascicularis; details: in vivo
[32] = test system: Putamen; assay: Drug uptake in anesthetized cynomolgus monkey brain putamen after 207.5 mins postinjection; assay type: ADME, organism-based, Macaca fascicularis; details: in vivo
[33] = Drug uptake in awake rhesus monkey brain medulla after 35 mins postinjection; assay type: ADME, organism-based, Macaca mulatta; details: in vivo
[34] = Drug uptake in awake rhesus monkey brain thalamus after 10.5 mins postinjection; assay type: ADME, organism-based, Macaca mulatta; details: in vivo, 0.175 h
[35] = Drug uptake in awake rhesus monkey brain medulla after 85 mins postinjection; assay type: ADME, organism-based, Macaca mulatta; details: in vivo
[36] = test system: Pons; assay: Drug uptake in anesthetized cynomolgus monkey brain pons after 187.5 mins postinjection; assay type: ADME, organism-based, Macaca fascicularis; details: in vivo, 3.125 h
[37] = Drug uptake in anesthetized cynomolgus monkey brain occipital lobe after 197.5 mins postinjection; assay type: ADME, organism-based, Macaca fascicularis; details: in vivo
[38] = Drug uptake in awake rhesus monkey brain frontal lobe after 65 mins postinjection; assay type: ADME, organism-based, Macaca mulatta; details: in vivo
[39] = Drug uptake in awake rhesus monkey brain frontal lobe after 13.5 mins postinjection; assay type: ADME, organism-based, Macaca mulatta; details: in vivo, 0.225 h
[40] = test system: Medulla; assay: Drug uptake in anesthetized cynomolgus monkey brain medulla after 192.5 mins postinjection; assay type: ADME, organism-based, Macaca fascicularis; details: in vivo
[41] = test system: Thalamus; assay: Drug uptake in anesthetized cynomolgus monkey brain thalamus after 207.5 mins postinjection; assay type: ADME, organism-based, Macaca fascicularis; details: in vivo
[42] = Drug uptake in awake rhesus monkey brain midbrain after 7.5 mins postinjection; assay type: ADME, organism-based, Macaca mulatta; details: in vivo, 0.125 h
[43] = test system: Pons; assay: Drug uptake in anesthetized cynomolgus monkey brain pons after 202.5 mins postinjection; assay type: ADME, organism-based, Macaca fascicularis; details: in vivo, 3.375 h
[44] = Drug uptake in awake rhesus monkey brain midbrain after 85 mins postinjection; assay type: ADME, organism-based, Macaca mulatta; details: in vivo
[45] = Drug uptake in awake rhesus monkey brain putamen after 75 mins postinjection; assay type: ADME, organism-based, Macaca mulatta; details: in vivo, 1.25 h
[46] = Ratio of drug uptake in caudate to cerebellum in awake rhesus monkey after 25 mins postinjection; assay type: ADME, organism-based, Macaca mulatta; details: in vivo
[47] = Drug uptake in awake rhesus monkey brain frontal lobe after 25 mins postinjection; assay type: ADME, organism-based, Macaca mulatta; details: in vivo
[48] = Drug uptake in awake rhesus monkey brain caudate after 55 mins postinjection; assay type: ADME, organism-based, Macaca mulatta, Caudate nucleus; details: in vivo
[49] = Drug uptake in anesthetized cynomolgus monkey brain cerebellum after 202.5 mins postinjection; assay type: ADME, organism-based, Macaca fascicularis; details: in vivo, 3.375 h
[50] = Drug uptake in awake rhesus monkey brain caudate after 95 mins postinjection; assay type: ADME, organism-based, Macaca mulatta, Caudate nucleus; details: in vivo
[51] = test system: Medulla; assay: Drug uptake in anesthetized cynomolgus monkey brain medulla after 197.5 mins postinjection; assay type: ADME, organism-based, Macaca fascicularis; details: in vivo
[52] = Drug uptake in awake rhesus monkey brain pons after 25 mins postinjection; assay type: ADME, organism-based, Macaca mulatta; details: in vivo
[53] = Drug uptake in awake rhesus monkey brain midbrain after 105 mins postinjection; assay type: ADME, organism-based, Macaca mulatta; details: in vivo, 1.75 h
[54] = test system: Thalamus; assay: Drug uptake in anesthetized cynomolgus monkey brain thalamus after 192.5 mins postinjection; assay type: ADME, organism-based, Macaca fascicularis; details: in vivo
[55] = test system: Putamen; assay: Drug uptake in anesthetized cynomolgus monkey brain putamen after 187.5 mins postinjection; assay type: ADME, organism-based, Macaca fascicularis; details: in vivo, 3.125 h
[56] = test system: Midbrain; assay: Drug uptake in anesthetized cynomolgus monkey brain midbrain after 187.5 mins postinjection; assay type: ADME, organism-based, Macaca fascicularis; details: in vivo, 3.125 h
[57] = Drug uptake in awake rhesus monkey brain caudate after 25 mins postinjection; assay type: ADME, organism-based, Macaca mulatta, Caudate nucleus; details: in vivo
[58] = test system: Thalamus; assay: Drug uptake in anesthetized cynomolgus monkey brain thalamus after 182.5 mins postinjection; assay type: ADME, organism-based, Macaca fascicularis; details: in vivo
[59] = Drug uptake in awake rhesus monkey brain midbrain after 35 mins postinjection; assay type: ADME, organism-based, Macaca mulatta; details: in vivo
[60] = Drug uptake in awake rhesus monkey brain thalamus after 95 mins postinjection; assay type: ADME, organism-based, Macaca mulatta; details: in vivo

With O=C(OCC[18F])C1C2CCC(CC1c1cccc(/C=C\I)c1)N2 (stereo not given) as the compound, how does the Drug uptake [1] read?
Its Drug uptake is 0.07.

What about the Drug uptake [2] of the same compound?
Its Drug uptake is 0.11.

What about the Drug uptake [3] of the same compound?
The Drug uptake was 1.65.

And the Ratio [4]?
The Ratio was 0.9.

And the Drug uptake [5]?
The Drug uptake was 1.52.

What about the Drug uptake [6] of the same compound?
The Drug uptake was 2.24.

And the Drug uptake [7]?
Its Drug uptake is 0.11.

And the Drug uptake [8]?
The Drug uptake was 0.08.

And the Drug uptake [9]?
Its Drug uptake is 1.58.

And the Ratio [10]?
The Ratio was 1.5.

And the Drug uptake [11]?
The Drug uptake was 0.09.

What about the Drug uptake [12] of the same compound?
Its Drug uptake is 2.31.

And the Drug uptake [13]?
The Drug uptake was 2.28.

And the Drug uptake [14]?
The Drug uptake was 0.09.

What about the Drug uptake [15] of the same compound?
Its Drug uptake is 0.1.

And the Drug uptake [16]?
Its Drug uptake is 0.14.

What about the Drug uptake [17] of the same compound?
The Drug uptake was 0.11.

What about the Drug uptake [18] of the same compound?
The Drug uptake was 2.21.

What about the Drug uptake [19] of the same compound?
Its Drug uptake is 0.1.

And the Drug uptake [20]?
The Drug uptake was 1.4.

What about the Ratio [21] of the same compound?
Its Ratio is 1.3.

And the Drug uptake [22]?
The Drug uptake was 0.08.

And the Drug uptake [23]?
Its Drug uptake is 1.49.

What about the Drug uptake [24] of the same compound?
Its Drug uptake is 2.52.

What about the Drug uptake [25] of the same compound?
Its Drug uptake is 3.2.

And the Drug uptake [26]?
Its Drug uptake is 2.16.

And the Drug uptake [27]?
The Drug uptake was 3.15.

And the Drug uptake [28]?
Its Drug uptake is 2.14.

What about the Drug uptake [29] of the same compound?
The Drug uptake was 0.13.

And the Drug uptake [30]?
The Drug uptake was 2.17.

What about the Drug uptake [31] of the same compound?
The Drug uptake was 2.63.

And the Drug uptake [32]?
Its Drug uptake is 2.58.

What about the Drug uptake [33] of the same compound?
The Drug uptake was 0.12.

What about the Drug uptake [34] of the same compound?
The Drug uptake was 0.12.

And the Drug uptake [35]?
The Drug uptake was 0.11.

What about the Drug uptake [36] of the same compound?
Its Drug uptake is 2.31.

What about the Drug uptake [37] of the same compound?
The Drug uptake was 1.39.

What about the Drug uptake [38] of the same compound?
The Drug uptake was 0.11.

And the Drug uptake [39]?
The Drug uptake was 0.08.

What about the Drug uptake [40] of the same compound?
The Drug uptake was 2.52.

And the Drug uptake [41]?
Its Drug uptake is 2.43.

What about the Drug uptake [42] of the same compound?
The Drug uptake was 0.08.

What about the Drug uptake [43] of the same compound?
Its Drug uptake is 2.25.

And the Drug uptake [44]?
The Drug uptake was 0.16.

And the Drug uptake [45]?
The Drug uptake was 0.17.

And the Ratio [46]?
The Ratio was 1.2.

What about the Drug uptake [47] of the same compound?
The Drug uptake was 0.11.

And the Drug uptake [48]?
The Drug uptake was 0.15.

What about the Drug uptake [49] of the same compound?
Its Drug uptake is 1.43.

What about the Drug uptake [50] of the same compound?
The Drug uptake was 0.14.

What about the Drug uptake [51] of the same compound?
The Drug uptake was 2.51.

What about the Drug uptake [52] of the same compound?
The Drug uptake was 0.12.

And the Drug uptake [53]?
The Drug uptake was 0.15.

And the Drug uptake [54]?
The Drug uptake was 2.56.

And the Drug uptake [55]?
The Drug uptake was 2.77.

And the Drug uptake [56]?
The Drug uptake was 3.37.

What about the Drug uptake [57] of the same compound?
Its Drug uptake is 0.13.

And the Drug uptake [58]?
The Drug uptake was 2.74.

And the Drug uptake [59]?
Its Drug uptake is 0.14.

What about the Drug uptake [60] of the same compound?
Its Drug uptake is 0.16.
